Columns and labels:
[1] = target: Mitogen-activated protein kinase 4 (Homo sapiens) (UniProt P31152); settings: Compound concentration 1000.0 nM
[2] = target: RAC-gamma serine/threonine-protein kinase (Homo sapiens) (UniProt Q9Y243); settings: Compound concentration 1000.0 nM
[3] = target: Alpha-2B adrenergic receptor (Homo sapiens) (UniProt P18089); settings: Compound concentration 10.0 uM
[4] = target: Ribosomal protein S6 kinase alpha-6 (Homo sapiens) (UniProt Q9UK32); settings: Compound concentration 1000.0 nM
[5] = target: Discoidin domain-containing receptor 2 (Homo sapiens) (UniProt Q16832); settings: Compound concentration 1000.0 nM
[6] = target: Tyrosine-protein kinase JAK2 (Homo sapiens) (UniProt O60674); settings: Compound concentration 1000.0 nM
[7] = system: eIF-2-alpha kinase GCN2 (Homo sapiens), Q9P2K8 [S808G]; settings: Compound concentration 1000.0 nM
[8] = target: D(3) dopamine receptor (Homo sapiens) (UniProt P35462); settings: Compound concentration 10.0 uM
[9] = target: Receptor-interacting serine/threonine-protein kinase 4 (Homo sapiens) (UniProt P57078); settings: Compound concentration 1000.0 nM
[10] = target: Serine/threonine-protein kinase TAO1 (Homo sapiens) (UniProt Q7L7X3); settings: Compound concentration 1000.0 nM
[11] = target: Protein kinase C eta type (Homo sapiens) (UniProt P24723); settings: Compound concentration 1000.0 nM
[12] = target: Serine/threonine-protein kinase 35 (Homo sapiens) (UniProt Q8TDR2); settings: Compound concentration 1000.0 nM
[13] = target: Mitogen-activated protein kinase kinase kinase 20 (Homo sapiens) (UniProt Q9NYL2); settings: Compound concentration 1000.0 nM
[14] = target: Mitogen-activated protein kinase kinase kinase 6 (Homo sapiens) (UniProt O95382); settings: Compound concentration 1000.0 nM
[15] = target: Aurora kinase A (Homo sapiens) (UniProt O14965); settings: Compound concentration 1000.0 nM
[16] = target: cAMP-dependent protein kinase catalytic subunit PRKX (Homo sapiens) (UniProt P51817); settings: Compound concentration 1000.0 nM
[17] = system: Epidermal growth factor receptor (Homo sapiens), P00533 [UNDEFINED MUTATION]; settings: Compound concentration 1000.0 nM
[18] = target: Serine/threonine-protein kinase LATS2 (Homo sapiens) (UniProt Q9NRM7); settings: Compound concentration 1000.0 nM
[19] = target: Vascular endothelial growth factor receptor 2 (Homo sapiens) (UniProt P35968); settings: Compound concentration 1000.0 nM
[20] = target: Serine/threonine-protein kinase DCLK2 (Homo sapiens) (UniProt Q8N568); settings: Compound concentration 1000.0 nM
[21] = target: Histamine H1 receptor (Homo sapiens) (UniProt P35367); settings: Compound concentration 10.0 uM
[22] = target: Dual specificity protein kinase TTK (Homo sapiens) (UniProt P33981); settings: Compound concentration 1000.0 nM
[23] = target: Glycogen synthase kinase-3 alpha (Homo sapiens) (UniProt P49840); settings: Compound concentration 1000.0 nM
[24] = target: Dual specificity mitogen-activated protein kinase kinase 1 (Homo sapiens) (UniProt Q02750); settings: Compound concentration 1000.0 nM
[25] = target: Serine/threonine-protein kinase 36 (Homo sapiens) (UniProt Q9NRP7); settings: Compound concentration 1000.0 nM
[26] = target: Bone morphogenetic protein receptor type-1B (Homo sapiens) (UniProt O00238); settings: Compound concentration 1000.0 nM
[27] = target: Platelet-derived growth factor receptor alpha (Homo sapiens) (UniProt P16234); settings: Compound concentration 1000.0 nM
[28] = system: Tyrosine-protein kinase ABL1 (Homo sapiens), P00519 [E255K]; settings: Compound concentration 1000.0 nM
[29] = target: Cyclin-dependent kinase 7 (Homo sapiens) (UniProt P50613); settings: Compound concentration 1000.0 nM
[30] = target: Serine/threonine-protein kinase PAK 5 (Homo sapiens) (UniProt Q9P286); settings: Compound concentration 1000.0 nM
[31] = target: Serine/threonine-protein kinase TBK1 (Homo sapiens) (UniProt Q9UHD2); settings: Compound concentration 1000.0 nM
[32] = target: Cyclin-dependent kinase 16 (Homo sapiens) (UniProt Q00536); settings: Compound concentration 1000.0 nM
[33] = target: Interleukin-1 receptor-associated kinase 1 (Homo sapiens) (UniProt P51617); settings: Compound concentration 1000.0 nM
[34] = target: RAC-alpha serine/threonine-protein kinase (Homo sapiens) (UniProt P31749); settings: Compound concentration 1000.0 nM
[35] = target: Death-associated protein kinase 2 (Homo sapiens) (UniProt Q9UIK4); settings: Compound concentration 1000.0 nM
[36] = system: Serine/threonine-protein kinase B-raf (Homo sapiens), P15056 [V600E]; settings: Compound concentration 1000.0 nM
[37] = target: Serine/threonine-protein kinase WNK3 (Homo sapiens) (UniProt Q9BYP7); settings: Compound concentration 1000.0 nM
[38] = target: Mitotic checkpoint serine/threonine-protein kinase BUB1 (Homo sapiens) (UniProt O43683); settings: Compound concentration 1000.0 nM
[39] = target: Inhibitor of nuclear factor kappa-B kinase subunit epsilon (Homo sapiens) (UniProt Q14164); settings: Compound concentration 1000.0 nM
[40] = target: Tyrosine-protein kinase receptor Tie-1 (Homo sapiens) (UniProt P35590); settings: Compound concentration 1000.0 nM
[41] = target: Mitogen-activated protein kinase kinase kinase kinase 1 (Homo sapiens) (UniProt Q92918); settings: Compound concentration 1000.0 nM
[42] = target: 5-hydroxytryptamine receptor 2B (Homo sapiens) (UniProt P41595); settings: Compound concentration 10.0 uM
[43] = target: Mitogen-activated protein kinase 3 (Homo sapiens) (UniProt P27361); settings: Compound concentration 1000.0 nM
[44] = system: Receptor-type tyrosine-protein kinase FLT3 (Homo sapiens), P36888 [D835Y]; settings: Compound concentration 1000.0 nM
[45] = target: Megakaryocyte-associated tyrosine-protein kinase (Homo sapiens) (UniProt P42679); settings: Compound concentration 1000.0 nM

Sequence of Mitogen-activated protein kinase 3 (Homo sapiens) (P27361 whole entry): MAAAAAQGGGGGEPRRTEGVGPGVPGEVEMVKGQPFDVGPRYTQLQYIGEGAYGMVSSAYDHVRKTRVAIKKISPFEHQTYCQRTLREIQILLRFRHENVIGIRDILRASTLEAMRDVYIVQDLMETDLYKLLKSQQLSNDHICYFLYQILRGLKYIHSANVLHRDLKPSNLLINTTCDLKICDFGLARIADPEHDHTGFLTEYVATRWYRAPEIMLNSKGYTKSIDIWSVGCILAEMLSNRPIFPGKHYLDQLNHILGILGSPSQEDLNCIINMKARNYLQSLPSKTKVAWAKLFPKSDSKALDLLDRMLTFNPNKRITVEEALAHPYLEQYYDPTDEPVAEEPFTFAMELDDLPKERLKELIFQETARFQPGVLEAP
Sequence of Epidermal growth factor receptor (Homo sapiens), P00533 [UNDEFINED MUTATION] (P00533 whole entry, looked up, change not shown): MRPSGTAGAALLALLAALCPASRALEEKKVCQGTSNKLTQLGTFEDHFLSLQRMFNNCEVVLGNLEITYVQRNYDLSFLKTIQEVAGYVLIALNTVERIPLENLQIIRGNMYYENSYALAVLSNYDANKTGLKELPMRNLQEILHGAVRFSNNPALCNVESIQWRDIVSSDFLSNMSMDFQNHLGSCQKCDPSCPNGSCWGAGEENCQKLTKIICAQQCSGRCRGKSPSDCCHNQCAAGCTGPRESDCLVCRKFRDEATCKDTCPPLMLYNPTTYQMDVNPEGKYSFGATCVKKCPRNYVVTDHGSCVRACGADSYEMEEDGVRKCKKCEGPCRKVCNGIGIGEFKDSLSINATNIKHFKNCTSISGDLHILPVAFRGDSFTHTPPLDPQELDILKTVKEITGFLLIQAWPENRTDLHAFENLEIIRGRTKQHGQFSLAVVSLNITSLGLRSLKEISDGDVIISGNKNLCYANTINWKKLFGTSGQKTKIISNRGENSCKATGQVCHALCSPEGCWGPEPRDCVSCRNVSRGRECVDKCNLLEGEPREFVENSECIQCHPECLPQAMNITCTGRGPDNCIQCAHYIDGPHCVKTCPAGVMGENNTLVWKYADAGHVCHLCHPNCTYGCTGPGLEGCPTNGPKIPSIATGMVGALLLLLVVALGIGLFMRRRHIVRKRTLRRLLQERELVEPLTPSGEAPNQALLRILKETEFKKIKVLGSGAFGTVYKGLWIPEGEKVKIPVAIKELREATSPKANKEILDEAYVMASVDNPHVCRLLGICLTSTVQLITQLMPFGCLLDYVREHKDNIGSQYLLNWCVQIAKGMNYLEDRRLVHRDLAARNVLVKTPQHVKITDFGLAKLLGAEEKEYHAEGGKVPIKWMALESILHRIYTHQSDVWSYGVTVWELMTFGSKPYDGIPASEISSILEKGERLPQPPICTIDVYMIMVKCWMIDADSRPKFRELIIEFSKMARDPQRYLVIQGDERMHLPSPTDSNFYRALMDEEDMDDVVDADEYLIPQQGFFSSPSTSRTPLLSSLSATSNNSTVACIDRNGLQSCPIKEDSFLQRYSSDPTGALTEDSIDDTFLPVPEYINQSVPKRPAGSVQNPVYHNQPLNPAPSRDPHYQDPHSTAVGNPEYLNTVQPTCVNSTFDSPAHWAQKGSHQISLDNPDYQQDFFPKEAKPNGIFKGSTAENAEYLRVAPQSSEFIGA
Sequence of Vascular endothelial growth factor receptor 2 (Homo sapiens) (P35968 whole entry): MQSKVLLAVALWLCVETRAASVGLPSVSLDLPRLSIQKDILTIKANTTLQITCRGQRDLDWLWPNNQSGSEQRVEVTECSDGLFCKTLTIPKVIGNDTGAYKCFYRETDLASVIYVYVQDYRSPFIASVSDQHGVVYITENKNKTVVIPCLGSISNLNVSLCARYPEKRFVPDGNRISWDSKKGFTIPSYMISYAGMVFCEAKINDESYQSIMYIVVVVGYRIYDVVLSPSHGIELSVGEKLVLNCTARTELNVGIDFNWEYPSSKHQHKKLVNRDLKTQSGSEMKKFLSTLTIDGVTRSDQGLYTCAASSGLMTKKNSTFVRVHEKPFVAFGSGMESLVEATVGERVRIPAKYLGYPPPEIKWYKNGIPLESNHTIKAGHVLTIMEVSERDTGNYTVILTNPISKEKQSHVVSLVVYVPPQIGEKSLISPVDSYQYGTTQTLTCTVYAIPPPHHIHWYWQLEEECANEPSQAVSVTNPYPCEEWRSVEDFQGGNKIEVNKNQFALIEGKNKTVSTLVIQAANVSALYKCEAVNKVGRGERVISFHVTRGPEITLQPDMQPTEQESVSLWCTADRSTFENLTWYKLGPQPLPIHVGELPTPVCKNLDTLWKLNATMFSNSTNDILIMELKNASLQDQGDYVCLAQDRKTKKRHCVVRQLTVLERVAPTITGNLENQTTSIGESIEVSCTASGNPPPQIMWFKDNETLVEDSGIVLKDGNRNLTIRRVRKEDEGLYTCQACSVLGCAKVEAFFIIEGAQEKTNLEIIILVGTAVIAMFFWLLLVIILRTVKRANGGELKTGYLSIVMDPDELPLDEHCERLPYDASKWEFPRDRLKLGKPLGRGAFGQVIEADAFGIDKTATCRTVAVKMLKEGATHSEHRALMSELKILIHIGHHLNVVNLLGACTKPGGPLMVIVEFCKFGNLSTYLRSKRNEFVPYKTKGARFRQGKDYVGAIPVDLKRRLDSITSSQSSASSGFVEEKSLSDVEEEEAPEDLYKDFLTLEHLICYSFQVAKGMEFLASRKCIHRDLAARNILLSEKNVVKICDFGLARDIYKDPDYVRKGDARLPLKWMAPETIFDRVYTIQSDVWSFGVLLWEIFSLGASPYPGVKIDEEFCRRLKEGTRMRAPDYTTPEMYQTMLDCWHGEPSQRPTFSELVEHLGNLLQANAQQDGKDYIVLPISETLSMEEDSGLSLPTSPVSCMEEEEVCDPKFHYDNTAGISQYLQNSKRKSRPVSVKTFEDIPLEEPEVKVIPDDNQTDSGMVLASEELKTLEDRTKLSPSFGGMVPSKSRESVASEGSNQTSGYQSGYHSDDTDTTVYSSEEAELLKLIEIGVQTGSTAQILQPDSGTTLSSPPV
Sequence of Serine/threonine-protein kinase WNK3 (Homo sapiens) (Q9BYP7 whole entry): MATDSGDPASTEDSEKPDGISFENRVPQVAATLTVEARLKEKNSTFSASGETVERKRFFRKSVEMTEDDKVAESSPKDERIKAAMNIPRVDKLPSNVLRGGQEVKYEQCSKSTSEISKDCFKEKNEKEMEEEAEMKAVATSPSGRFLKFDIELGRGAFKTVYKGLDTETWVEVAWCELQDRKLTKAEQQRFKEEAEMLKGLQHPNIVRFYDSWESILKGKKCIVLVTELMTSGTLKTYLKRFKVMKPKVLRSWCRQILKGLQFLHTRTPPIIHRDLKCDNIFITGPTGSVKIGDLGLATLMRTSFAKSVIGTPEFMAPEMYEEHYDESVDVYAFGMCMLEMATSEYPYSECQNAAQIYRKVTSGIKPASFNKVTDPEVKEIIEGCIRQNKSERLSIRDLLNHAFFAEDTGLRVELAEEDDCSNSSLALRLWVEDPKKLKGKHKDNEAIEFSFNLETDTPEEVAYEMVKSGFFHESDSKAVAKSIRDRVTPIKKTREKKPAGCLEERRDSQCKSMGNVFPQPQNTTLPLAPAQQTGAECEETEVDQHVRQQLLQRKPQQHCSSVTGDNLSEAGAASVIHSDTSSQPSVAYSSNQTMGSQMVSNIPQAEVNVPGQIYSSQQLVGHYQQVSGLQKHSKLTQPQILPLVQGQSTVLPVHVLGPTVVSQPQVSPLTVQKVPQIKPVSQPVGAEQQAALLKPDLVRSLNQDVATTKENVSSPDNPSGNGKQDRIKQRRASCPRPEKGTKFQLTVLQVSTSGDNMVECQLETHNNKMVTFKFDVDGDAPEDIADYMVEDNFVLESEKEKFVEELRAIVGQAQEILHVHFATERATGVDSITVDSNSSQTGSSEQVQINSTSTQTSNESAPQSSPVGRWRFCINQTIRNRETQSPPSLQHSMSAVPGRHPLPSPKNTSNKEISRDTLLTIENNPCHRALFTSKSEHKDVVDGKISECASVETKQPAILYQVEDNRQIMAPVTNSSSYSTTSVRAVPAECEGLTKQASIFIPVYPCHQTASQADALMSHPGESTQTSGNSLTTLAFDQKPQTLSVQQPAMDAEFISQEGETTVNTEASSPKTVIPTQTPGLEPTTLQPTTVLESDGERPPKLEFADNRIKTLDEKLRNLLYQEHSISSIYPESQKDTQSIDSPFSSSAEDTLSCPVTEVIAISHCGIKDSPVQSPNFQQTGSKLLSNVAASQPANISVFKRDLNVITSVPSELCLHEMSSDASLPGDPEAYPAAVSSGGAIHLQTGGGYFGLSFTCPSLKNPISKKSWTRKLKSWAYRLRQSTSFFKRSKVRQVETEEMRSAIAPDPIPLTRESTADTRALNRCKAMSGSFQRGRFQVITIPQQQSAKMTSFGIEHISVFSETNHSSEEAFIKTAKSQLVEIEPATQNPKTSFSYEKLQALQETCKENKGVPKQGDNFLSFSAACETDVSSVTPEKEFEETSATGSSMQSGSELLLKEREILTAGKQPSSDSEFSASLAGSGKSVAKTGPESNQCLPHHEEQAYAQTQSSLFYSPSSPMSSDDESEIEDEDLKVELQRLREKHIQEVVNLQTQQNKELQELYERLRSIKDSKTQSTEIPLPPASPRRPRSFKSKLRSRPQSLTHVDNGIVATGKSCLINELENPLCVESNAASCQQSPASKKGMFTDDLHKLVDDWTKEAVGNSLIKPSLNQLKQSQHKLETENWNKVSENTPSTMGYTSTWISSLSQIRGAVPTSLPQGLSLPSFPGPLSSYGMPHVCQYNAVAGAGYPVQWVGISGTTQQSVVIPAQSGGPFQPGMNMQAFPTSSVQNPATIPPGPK
Sequence of cAMP-dependent protein kinase catalytic subunit PRKX (Homo sapiens) (P51817 whole entry): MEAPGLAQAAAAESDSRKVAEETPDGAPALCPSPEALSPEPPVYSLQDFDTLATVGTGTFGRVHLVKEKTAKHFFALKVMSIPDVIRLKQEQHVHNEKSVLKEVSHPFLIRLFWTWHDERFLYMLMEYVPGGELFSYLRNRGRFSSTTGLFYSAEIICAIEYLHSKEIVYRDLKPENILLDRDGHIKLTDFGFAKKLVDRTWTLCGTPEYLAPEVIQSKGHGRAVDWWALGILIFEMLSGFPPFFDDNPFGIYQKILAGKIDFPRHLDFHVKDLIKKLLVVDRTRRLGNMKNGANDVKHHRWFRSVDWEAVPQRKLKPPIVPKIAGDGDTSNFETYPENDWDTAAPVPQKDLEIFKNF

CCC(=O)N[C@H]1CC[C@@H](C(=O)N(C)c2ccc(-c3nc4ccccc4o3)cc2)C1 [BI 99179]
residual activity [1]: 100% | residual activity [2]: 100% | inhibition [3]: 5.31% | residual activity [4]: 82% | residual activity [5]: 100% | residual activity [6]: 70% | residual activity [7]: 100% | inhibition [8]: 12.1% | residual activity [9]: 50% | residual activity [10]: 100% | residual activity [11]: 96% | residual activity [12]: 88% | residual activity [13]: 89% | residual activity [14]: 76% | residual activity [15]: 43% | residual activity [16]: 91% | residual activity [17]: 79% | residual activity [18]: 67% | residual activity [19]: 75% | residual activity [20]: 98% | inhibition [21]: 20.9% | residual activity [22]: 100% | residual activity [23]: 100% | residual activity [24]: 89% | residual activity [25]: 100% | residual activity [26]: 91% | residual activity [27]: 85% | residual activity [28]: 75% | residual activity [29]: 79% | residual activity [30]: 100% | residual activity [31]: 78% | residual activity [32]: 88% | residual activity [33]: 83% | residual activity [34]: 97% | residual activity [35]: 100% | residual activity [36]: 96% | residual activity [37]: 92% | residual activity [38]: 74% | residual activity [39]: 52% | residual activity [40]: 100% | residual activity [41]: 100% | inhibition [42]: 4.55% | residual activity [43]: 100% | residual activity [44]: 100% | residual activity [45]: 100%

CCC(=O)N[C@@H]1CC[C@H](C(=O)N(C)c2ccc(-c3nc4ccccc4o3)cc2)C1 [BI 99990]
residual activity [1]: 100% | residual activity [2]: 100% | inhibition [3]: 7.05% | residual activity [4]: 84% | residual activity [5]: 92% | residual activity [6]: 100% | residual activity [7]: 54% | inhibition [8]: 4.36% | residual activity [9]: 72% | residual activity [10]: 97% | residual activity [11]: 95% | residual activity [12]: 100% | residual activity [13]: 78% | residual activity [14]: 75% | residual activity [15]: 100% | residual activity [16]: 100% | residual activity [17]: 75% | residual activity [18]: 69% | residual activity [19]: 77% | residual activity [20]: 89% | inhibition [21]: 18.6% | residual activity [22]: 100% | residual activity [23]: 84% | residual activity [24]: 100% | residual activity [25]: 82% | residual activity [26]: 100% | residual activity [27]: 86% | residual activity [28]: 100% | residual activity [29]: 85% | residual activity [30]: 100% | residual activity [31]: 65% | residual activity [32]: 100% | residual activity [33]: 100% | residual activity [34]: 100% | residual activity [35]: 100% | residual activity [36]: 100% | residual activity [37]: 100% | residual activity [38]: 89% | residual activity [39]: 60% | residual activity [40]: 95% | residual activity [41]: 100% | inhibition [42]: 19.1% | residual activity [43]: 100% | residual activity [44]: 100% | residual activity [45]: 100%

From ChEMBL document CHEMBL4507280 (2021)
